The values that follow come from patent US10927115B2, “Substituted heterocycles for targeting Hsp90” (Duke University, priority 2012, dated 2021).

Data set [1] has as its system Hsp90. The data set can be described thus: Recovery of drug-bound protein from tumors of mice by micro anion-exchange chromatography. It counts as in vivo. The settings on record: 1 mg IV, tumors excised after 2 hours, FIG. 17. As to the method:
Mice were injected (IV) with 1 mg of compound 10 and the tumors were excised from the animal after 2 hours. Tissue extracts were prepared and characterized by micro anion-exchange chromatography. Column fractions were analyzed for the presence of compound 10 by fluorescence and mass spectrometry.

A further data set relates to MDA MB 468 xenografts. Put plainly: Fluorescence imaging of HSP90 expression in mouse xenografts (IVIS imager, plate reader). It counts as in vivo, Mice. As to the method: Mice with MDA MB 468 xenografts were injected with either 0.1, 0.5 or 1 mg of compound 10 intravenously. The animals were then immediately imaged in real time in an IVIS Kinetic imager (Caliper Life Science) for the presence of fluorescence at 465ex/520em. After two hours the tumors were excised and examined for the presence of compound 10.
Red image (false, 1 vs. 2) clearly demarks the tumor over background signal (appearing very dark gray in FIG. 14A).
Measurements were made in the IVIS imager or by preparing cells extracts from the tumors and measuring their fluorescence in a microtitre plate reader.

Data set [2] has as its system MDA-MB-468 tumor. The data set can be described thus: Tumor labeling experiment, frozen sections under fluorescent microscope. It counts as in vivo, NOD/SCID mice. The note with it: 1 mg/mouse intraperitoneal; from 2 to 48 h; FIG. 12. As to the method: MDA-MB-468 tumor cells (5 M cells/mouse) were injected to the flank of NOD/SCID mice. After 3 weeks, tumor volumes reached 400-450 mm^3. Mice were treated/untreated with intraperitoneal injection of compound 10 (1 mg/mouse). After 2, 24, 48 and 72 hours, mice were sacrificed, and tumor tissues were frozen in OCT compound. FITC(+) cells in tumor tissues (frozen sections) were analyzed under fluorescent microscope (Axio Observer). In FIG. 12, the green staining from compound 10 fluorescence appears white or light gray.

For data set [3], the system named is TZM-bl (Hela derived) cells infected with NL4.3 virus (HIV-1). Put plainly: Confocal microscopy of cells infected with HIV-1 treated with compound 10. It counts as cell-based. The procedure: TZM-bl (Hela derived) cells were added on glass coverslips in 24-well plates (1×10^5 cells/well) and were allowed to attach to cover slips overnight. For infection NL4.3 virus (HIV-1) was added to medium to achieve 10 ng/mL P24 protein concentration along with DEAE dextran at a final concentration 15 μg/mL. After 48 hours of infection, compound 10 was added to the medium and incubated for 1 hour at 37° C. Later the infected cells were washed twice with phosphate-buffered saline (PBS) and fixed for 20 min in 4% paraformaldehyde. They were washed twice with PBS and permeabilized for 30 min in 50% ice cold methanol on ice. Blocking was carried out using 1% FBS for 30 minutes at room temperature after two washes with PBS. Cells were then incubated for 2 hours at room temperature with antibody against HIV-1 capsid protein P24 at 1:100 dilutions in PBS. The antibody was obtained from the AIDS Reference and Reagent Program (HIV-1 p24 Monoclonal Antibody-183-H12-5C, Catalogue number: 3537). The cells were washed three times in PBS before and after 1 h of incubation with anti-mouse Texas Red secondary antibody (1:250). (Texas Red® Goat Anti-Mouse IgG (H+L), catalogue number: T682, Life technologies). […]

The subject of the next data set is xenografts (MDA-MB 468). The data set can be described thus: Confocal analysis of xenograft tissue slices after IP injection. It counts as in vivo. The note with it: harvested one hour after injection (IP), FIG. 8. As to the method:
Tissue slices were prepared from the harvested xenografts and prepared for analysis by confocal analysis. […] A tissue slice from the control experiment is shown in which the animal was injected with vehicle alone (DMSO). Only background fluorescence is detected. In FIG. 8 the green staining from compound 10 fluorescence appears white or light gray, while blue from the DAPI-stained nuclei appears dark gray.

The test system of data set [4] is MDA-MB-468 tumor. Put plainly: In vivo detection of compound 10 with optical spectroscopy. Further details: species or system SCID mice. The settings on record: 1 mg via tail vein, FIG. 15. As to the method:
MDA-MB-468 tumor cells (1 M cells/mouse) were injected to the flank of SCID mice. Three weeks later, when tumor size reached 5-8 mm in diameter, the experiment was performed. Baseline autofluorescence levels were measured for tumor and normal tissues (skin adjacent to tumor). 1 mg or 0.5 mg of compound 10 was injected via tail vein. After drug injection, fluorescence signals were measured with the optical spectroscopy (˜30 min). Two days after injection, measurement of fluorescence signal was repeated.
Normal: Normal skin adjacent to tumor. All data are normalized to peak fluorescence intensity to compare fluorescence line shapes. […] Measurements were made within a few minutes of injection.

Data set [5] has as its system MCF7 cells. Put plainly: Compound 10 fluorescence in MCF7 cells with anti-Hsp90 antibody or competing compound 5. It counts as cell-based. The note with it: FIG. 6B. As to the method:
In FIG. 6B, the compound was added in the presence of an antibody to Hsp90. […] DAPI (blue) highlights the nucleus of the cell. In FIG. 6 the green staining from compound 10 fluorescence appears white, while blue from the DAPI-stained nuclei appears gray.

The test system of the next data set is Huh7 cell line. Put plainly: Fluorescence microscopy uptake of probe in tumor cells. It counts as cell-based, human. The settings on record: micromolar concentrations; Huh7, non-metastatic; FIG. 4. The text has this:
(§1) In one experiment, the fluorescein compound 10 was applied at micromolar concentrations to four types of tumor cells. […] The probe (10) fluoresces to give green staining in images obtained; in FIG. 4, the green staining appears white.

For another data set, the system named is MCF-7. The data set is described as above. It counts as cell-based, human. The note with it: micromolar concentrations, FIG. 4.
From the text: as §1

In a further data set the test system is MDA-MB 468. Described as above. It counts as cell-based, human. The note with it: micromolar concentrations, FIG. 4.
From the text: as §1

The next data set relates to BT474. The data set is described as above. It counts as cell-based, human. The note with it: micromolar concentrations, FIG. 4.
From the text: as §1

Data set [6] has as its system Hsp90. The data set can be described thus: Recovery of compound 10 bound to purified Hsp90 by microanion exchange chromatography. It counts as binding, pig. The note with it: excess compound 10, dialysis; Western blot and mass spectrometry; FIG. 13A. The procedure:
(§2) Hsp90 was purified from pig mammary gland as described in Hughes et al., Bioorg Med Chem. 2012, 20(10):3298-3305. The purified protein (0.3 g) was mixed with an excess of compound 10. The unbound probe was removed by dialysis and the labeled protein subjected to microanion exchange chromatography using a Pharmacia SMART system. Column fractions (100 μL) were collected and analyzed for fluorescence in a plate reader. […] The chromatography experiment was then repeated on cell extracts prepared from MCF7 and BT474 cells treated with compound 10.
Background: Immunoblotting shows a protein as a band on a membrane.

In another data set the test system is BT474 cells. Put plainly: Anion exchange chromatography of extracts of cells treated with compound 10. It counts as cell-based. The settings on record: BT474 cells treated with compound 10; peak at 49 minutes. The procedure:
as §2

In data set [7] the test system is MCF7 cells. The data set is described as above. It counts as cell-based. The note with it: MCF7 cells treated with compound 10; peak at 49 minutes. The procedure: as §2

Structures are written as SMILES.

Take `Cc1nn(-c2ccc(C(N)=O)c(NCCCOCCOCCOCCOCCOCCCNC(=S)Nc3ccc4c(c3)C(=O)OC43c4ccc(O)cc4Oc4cc(O)ccc43)c2)c2c1C(=O)CC(C)(C)C2` [Compound 10, 2-((1-((3′,6′-dihydroxy-3-oxo-3H-spiro[isobenzofuran-1,9′-xanthen]-5-yl)amino)-1-thioxo-6,9,12,15,18-pentaoxa-2-azahenicosan-21-yl)amino)-4-(3,6,6-trimethyl-4-oxo-4,5,6,7-tetrahydro-1H-indazol-1-yl)benzamide]: the “two minor peaks of fluorescence of tumor extract” value in the data set with Hsp90 [1] (fractions 27-35) is “attributable to binding to degraded forms of the N terminal domain of Hsp90”. Besides, the “major peak of fluorescence of tumor extract” value with Hsp90 [1] (fractions 49-53) is listed as “correlates with elution of full length Hsp90”. Also, the “accumulation in tumors isolated from mice” value with MDA MB 468 xenografts (indicated doses, IVIS imager or tumor cell extracts in plate reader, FIG. 14B, 14C) is listed as “accumulates selectively within the tumor mass in a dose dependent manner”. Further, in the data set on MDA MB 468 xenografts (tail vein injection, 465ex/520em, FIG. 14A), the “accumulation in the xenograft, real time imaging” value is “rapid accumulation”. Also, in the data set on MDA-MB-468 tumor [2], the “FITC signal of tumor cells in frozen sections” value is reported as “intense FITC signal”. Also, the “detection of HIV infected cells” value in data set [3] (48 hours of infection, 1 hour at 37° C., FIG. 16) was “can be used to detect cells infected with HIV”. For the same compound, the “recognition of uninfected cells” value in data set [3] (FIG. 16 panel D) is on record as “do not recognize uninfected cells”. Also, the “presence of compound in tumor cells of xenograft” value in the data set on xenografts (MDA-MB 468) is listed as “detected within the tumor cells”. In the data set with MDA-MB-468 tumor [4], the “fluorescence signal in tumor, Day 3” value is on record as “still retains FITC signal”. The “fluorescence signal at normal site, Day 3” value in the data set on MDA-MB-468 tumor [4] (normal skin adjacent to tumor) was “declined to pre-injection baseline level”. For the same compound, the “fluorescence signal, normal skin versus tumor, Day 0” value with MDA-MB-468 tumor [4] (within a few minutes of injection) was “Normal shows higher signal than tumor”. Further, the “localisation of the probe in the presence of an antibody to Hsp90” value with MCF7 cells [5] was “accumulate at the membrane”. Also, the “uptake of the probe” value was “does not absorb the probe” in the data set with Huh7 cell line, “take up the probe readily” with MCF-7, “take up the probe readily” in the data set with MDA-MB 468 and “take up the probe readily” in the data set with BT474. The “fluorescence elution profile of labeled purified Hsp90” value in the data set with Hsp90 [6] is “single peak was recovered by fluorescence that correlated with elution of Hsp90”. For the same compound, the “fluorescence peak of cell extract” value in the data set with BT474 cells and with MCF7 cells [7] was “co-elutes with Hsp90” in each case.
